The values below come from BindingDB's records for doi:10.1016/j.bmc.2020.115327 (Punjabi University, 2020).

The target in the assay is Signal transducer and activator of transcription 3 (Homo sapiens, UniProt P40763). The experiment in a line: Inhibition of STAT3 in human K562 cells assessed as reduction in STAT3 phosphorylation.
Sequence of Signal transducer and activator of transcription 3 (P40763 whole entry): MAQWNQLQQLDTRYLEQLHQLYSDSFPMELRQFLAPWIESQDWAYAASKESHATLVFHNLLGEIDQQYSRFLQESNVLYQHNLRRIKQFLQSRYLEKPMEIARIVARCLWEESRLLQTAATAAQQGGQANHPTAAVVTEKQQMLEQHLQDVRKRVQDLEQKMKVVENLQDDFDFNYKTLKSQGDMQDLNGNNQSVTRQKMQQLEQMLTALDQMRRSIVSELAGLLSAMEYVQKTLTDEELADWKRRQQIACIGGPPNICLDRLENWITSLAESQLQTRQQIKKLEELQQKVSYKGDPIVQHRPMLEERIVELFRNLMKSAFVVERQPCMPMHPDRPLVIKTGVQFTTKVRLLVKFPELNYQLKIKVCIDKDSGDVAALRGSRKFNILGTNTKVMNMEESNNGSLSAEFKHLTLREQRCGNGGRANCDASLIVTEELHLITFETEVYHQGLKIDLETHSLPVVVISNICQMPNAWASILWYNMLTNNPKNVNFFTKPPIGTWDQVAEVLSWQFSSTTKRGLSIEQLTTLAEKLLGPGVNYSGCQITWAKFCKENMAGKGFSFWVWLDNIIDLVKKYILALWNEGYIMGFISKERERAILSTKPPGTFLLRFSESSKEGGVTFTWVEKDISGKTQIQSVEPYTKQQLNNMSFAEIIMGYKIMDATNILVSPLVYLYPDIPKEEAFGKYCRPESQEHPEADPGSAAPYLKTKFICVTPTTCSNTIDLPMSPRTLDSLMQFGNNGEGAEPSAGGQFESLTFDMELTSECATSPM

As usually defined, the IC50 is the concentration needed to halve the response being measured. In the case of `CCc1ccc(Nc2nc3cc(N)ccc3o2)cc1`, the IC50 was found to be 18.9 µM.
In the case of `CCc1ccc(Nc2nc3cc(NC(=O)c4ccccc4)ccc3o2)cc1` it was 5.8 µM.
